Measurements: PubChem BioAssay AID449750 (Broad Institute, 2010)
Active and inactive are the calls of the source. No rule for the calls is given here.

Assay: non-covalent RecA intein splicing inhibitors, dose response, biochemical, cell-free, fluorescence, secondary screen (AID 449750)

CC(C)(C)OC(=O)N/N=C\c1ccc(OC(=O)c2ccco2)cc1
AC50: > 38 µM (inactive)

Cc1ccc2nc(/C(C#N)=C\c3ccc([N+](=O)[O-])o3)[nH]c2c1
AC50: > 38 µM (inactive)

Cc1ccc(OC(=O)c2ccc([N+](=O)[O-])cc2Cl)cn1
AC50: > 38 µM (inactive)

CCOc1cc(/C=C2/C(=O)N(c3ccccc3)N=C2C)ccc1OC(=O)c1ccco1
AC50: 3.17 µM

O=C(N/N=C\c1ccc(-c2ccccc2[N+](=O)[O-])o1)C1COc2ccccc2O1 (centres undefined)
AC50: 8.06 µM

CN1CCN(C(c2ccc(C(F)(F)F)cc2)c2cc(Cl)c3cccnc3c2O)CC1 (centres undefined)
AC50: > 38 µM (inactive)

Cc1ccc(NC(=O)c2nc(S(=O)(=O)Cc3ccccc3C)ncc2Cl)cc1C
AC50: > 38 µM (inactive)

Nc1nc(C(=O)N2CCOCC2)nn1C(=O)c1ccc(Cl)cc1
AC50: > 38 µM (inactive)

Cc1nc2ccccc2nc1N/N=C/c1ccc(O)cc1O
AC50: > 38 µM (inactive)

COc1ccc(CN2CCNC(=O)C2CC(=O)N(C)Cc2ccncn2)c(OC)c1 (centres undefined)
AC50: > 38 µM (inactive)

O=C1NCCCC2c3c(cc(Br)c(O)c3Br)OC12N1CCCCC1 (centres undefined)
AC50: > 38 µM (inactive)

O=C(N/N=C/c1coc2ccc(Cl)cc2c1=O)c1ccc(O)cc1
AC50: > 38 µM (inactive)

COc1ccc(C2NC(c3ccc(OC)cc3OC)C(C)C(=O)C2C)c(OC)c1 (centres undefined)
AC50: > 38 µM (inactive)

Cc1[nH][nH]c(=O)c1C(c1ccc(O)c(Br)c1)c1c(C)[nH][nH]c1=O
AC50: 13.5 µM

N#Cc1cc(-c2ccccc2)nc(Oc2ccccc2)n1
AC50: > 38 µM (inactive)

COc1ccccc1/C=C1/C(=O)N(c2ccccc2)N=C1C
AC50: > 38 µM (inactive)

O=c1oc2cc(Oc3c([N+](=O)[O-])cc(C(F)(F)F)cc3[N+](=O)[O-])ccc2c2c1CCCC2
AC50: > 38 µM (inactive)

CCC(=O)N/N=C(\C)CC(=O)Nc1cccc([N+](=O)[O-])c1
AC50: > 38 µM (inactive)

N#CC1=C(N)N(c2ccccc2)C(c2cccc([N+](=O)[O-])c2)C1(C#N)C#N (centres undefined)
AC50: > 38 µM (inactive)

CCS(=O)(=O)C1=NN2C(=N)/C(=C\c3ccc(OC(=O)c4ccco4)cc3)C(=O)N=C2S1
AC50: > 38 µM (inactive)

Cc1ccc(S(=O)(=O)NC(=O)Nc2ccc(N(C)C)cc2)cc1
AC50: 31 µM

O=C(CCl)Nc1cccc(S(=O)(=O)N2CCCCCC2)c1
AC50: > 38 µM (inactive)

CCc1nnc(NS(=O)(=O)c2ccc(NC(=S)NC(=O)/C=C/c3ccc(C(C)C)cc3)cc2)s1
AC50: 5.98 µM

C/C(CC(=O)Nc1ccccn1)=N\NC(=O)c1cccc(C)c1
AC50: > 38 µM (inactive)

Cc1cccc(OCC(=O)Oc2ccc(Cl)cc2)c1
AC50: > 12 µM (inactive)

CC(C)c1ccc(/C=N/NC(=O)c2nnn(-c3nonc3N)c2CSC2=NCCS2)cc1
AC50: 27.6 µM

Cc1cc(-c2[nH]nc3c2C(c2ccsc2)C(C#N)=C(N)O3)c(C)s1 (centres undefined)
AC50: 13.6 µM

CCCc1ccc(/C=C2\C(=O)c3ccccc3C(O)=C2C(=O)OCC)cc1
AC50: 8.63 µM

Cc1ccc(C)c(NC2=C(Cl)C(=O)OC2OC(=O)c2ccco2)c1 (centres undefined)
AC50: > 38 µM (inactive)

COc1cc(NC(C)CCCN)c2ncccc2c1Oc1ccccc1 (centres undefined)
AC50: 15.2 µM

C=CCOC(=O)C1=C(C)NC(=O)NC1c1ccc(OC(=O)c2ccco2)c(OC)c1 (centres undefined)
AC50: > 38 µM (inactive)

CS(=O)(=O)c1nc(-c2ccco2)cc(C(F)(F)F)n1
AC50: > 38 µM (inactive)

O=C(Oc1ccccc1N1C(=O)CCC1=O)c1ccco1
AC50: > 38 µM (inactive)

COc1ccc(S(=O)(=O)c2cnc3ccccc3n2)cc1
AC50: > 38 µM (inactive)

O=C(Oc1ccc(N(C(=O)c2ccncc2)S(=O)(=O)c2ccc(Cl)cc2)cc1)c1ccncc1
AC50: > 38 µM (inactive)

COc1cc(Br)c(C2C(C#N)=C(N)Oc3n[nH]c(-c4cccnc4)c32)cc1OC (centres undefined)
AC50: 34.5 µM

Cn1[nH]c(CSc2ccc(Cl)cc2)cc1=O
AC50: 13.3 µM

O=C(Nc1nc(-c2ccccc2)cs1)c1ccccc1NS(=O)(=O)c1ccc(F)cc1
AC50: 8.16 µM

O=C(Oc1ccc2ccccc2c1)c1ccco1
AC50: > 38 µM (inactive)

O=C1C(Nc2ccccc2)=C/C(=N/S(=O)(=O)c2cccs2)c2ccccc21
AC50: 0.226 µM

CC(=O)c1c(Cl)nc2cccc3c2c1-c1ccccc1C3=O
AC50: > 38 µM (inactive)

CCOc1cc(C(c2c(C)[nH][nH]c2=O)c2c(C)[nH][nH]c2=O)ccc1OCc1ccc([N+](=O)[O-])cc1
AC50: 6.09 µM

O=[N+]([O-])c1cc(S(=O)(=O)C(F)(F)F)ccc1Sc1nc2ccccc2[nH]1
AC50: 16 µM

CCCCCCCCCCOC(=O)Cn1c(COc2ccccc2C)[n+](C)c2ccccc21
AC50: 6.93 µM

CCCOC(=O)c1ccc(OC(=O)c2ccco2)cc1
AC50: > 38 µM (inactive)

O=[N+]([O-])c1cc([N+](=O)[O-])c2cc3ccccc3nc2c1
AC50: 7.29 µM

O=C(CCl)N1CCN(S(=O)(=O)c2ccc3ccccc3c2)CC1
AC50: 6.51 µM

COc1ccc(NC(=O)CSc2c3c(nc4cc(Cl)ccc24)CCCC3)cc1OC
AC50: 31.7 µM

COc1cc(C=C2C(=O)c3ccccc3C2=O)ccc1O
AC50: > 38 µM (inactive)

Cc1ccc(-c2cc(=O)[nH][nH]2)c(C)c1
AC50: 34.3 µM

Cc1noc2ncnc(Sc3ccc(Br)cc3)c12
AC50: 13.5 µM

O=C(Nc1ccccc1)C1=C(c2ccccc2)S(=O)(=O)CCS1(=O)=O
AC50: > 38 µM (inactive)

O=C(CCl)N1N=C(c2ccco2)CC1c1cccs1 (centres undefined)
AC50: 6.09 µM

CCOC1(OCC)C(c2ccc(Cl)cc2)C(C#N)(C#N)C1(OCC)OCC (centres undefined)
AC50: > 38 µM (inactive)

CSc1nc(O)c(Nc2cccc(Cl)c2)c(=O)[nH]1
AC50: > 38 µM (inactive)

O=C(N/N=C/c1ccc(OC(=O)c2ccco2)cc1)c1ccc[n+]([O-])c1
AC50: > 38 µM (inactive)

CCCc1[nH][nH]c(=O)c1C(c1cccc(Cl)c1)C(C#N)C#N (centres undefined)
AC50: 9.32 µM

CC1C(=O)C(C)C(c2cc(Cl)ccc2O)NC1c1cc(Cl)ccc1O (centres undefined)
AC50: 5.18 µM

CN(C)c1ccc(NC(=O)c2ccncc2)c2ccccc12
AC50: > 38 µM (inactive)

O=C(CCl)Nc1ccc(N=Nc2ccccc2)cc1
AC50: 4.64 µM

COc1ccc(/C=N/NC(=O)c2nn(-c3ccccc3)c(=O)c3c(N)scc23)cc1
AC50: > 38 µM (inactive)

CCOc1cc(/C=C2\C(=N)N3N=C(S(=O)(=O)CC)SC3=NC2=O)ccc1OC(=O)c1ccco1
AC50: > 38 µM (inactive)

N#CCn1c(CCl)nc2ccccc2c1=O
AC50: > 38 µM (inactive)

COc1ccc(O)c(C(c2c(C)[nH][nH]c2=O)c2c(C)[nH][nH]c2=O)c1
AC50: 8.26 µM

CC1=C(C(=O)OC(C)C)C2(O)C(=O)c3ccccc3C2(O)N1 (centres undefined)
AC50: 9.7 µM

COc1cc(C(c2c(C)[nH][nH]c2=O)c2c(C)[nH][nH]c2=O)ccc1OC(C)C
AC50: 12 µM

Cc1ccc(Sc2c([N+](=O)[O-])ncn2C)cc1
AC50: > 38 µM (inactive)

COC1(OC)C(/C=C/c2ccc(C)cc2)C(C#N)(C#N)C1(OC)OC (centres undefined)
AC50: > 38 µM (inactive)

COc1ccc(CNC(=O)c2nc(S(=O)(=O)Cc3ccccc3)ncc2Cl)cc1
AC50: > 38 µM (inactive)

COc1ccc(/C=C/C(=O)c2ccccc2)cc1COc1ccc(F)cc1
AC50: 2.18 µM

CCOC(=O)c1c(CSC(=N)N)n(-c2ccc(C)cc2)c2cc(Br)c(OC(C)=O)cc12
AC50: 8.36 µM

CC(=O)c1ccc(OC(=O)c2cccs2)cc1
AC50: > 38 µM (inactive)

O=C1C(Cl)=C(N2CCOCC2)C(=O)N1c1ccccc1F
AC50: > 38 µM (inactive)

Cc1ccccc1-c1nc(CN(C)C(C)c2ccon2)c(C)o1 (centres undefined)
AC50: > 38 µM (inactive)

CN(C)C(=O)c1ccc2c(c1[N+](=O)[O-])C(=O)c1ccccc1C2=O
AC50: > 12 µM (inactive)

O=C(Cc1ccccc1Cl)NC1(O)C(=O)c2ccccc2C1=O
AC50: 7.63 µM

Cc1ccc(C)c(S(=O)(=O)Nc2ccc(O)c3ccccc23)c1
AC50: 0.598 µM

O=[N+]([O-])c1cc([N+](=O)[O-])c2oc(-c3ccccc3)c(Br)c2c1O
AC50: 2.04 µM

O=C(NC1CCCCC1)C(c1cccnc1)N(C(=O)CCl)c1ccc(F)cc1 (centres undefined)
AC50: 5.58 µM

Cc1ccc(O)c(N=CC2=C(O)c3ccccc3C2=O)c1
AC50: 21.5 µM

CN1C(=O)/C(=C/c2ccc(-c3ccccc3[N+](=O)[O-])o2)SC1=Nc1ccc(Cl)c(C(=O)O)c1
AC50: 17.1 µM

O=C(CCS(=O)NCc1ccccc1)NCc1ccccc1 (centres undefined)
AC50: > 38 µM (inactive)

CCc1nnc(NC(=O)c2nc(S(=O)(=O)Cc3cccc(C)c3)ncc2Cl)s1
AC50: > 38 µM (inactive)

C/C(=N\NC(=O)Cc1cc(=O)[nH][nH]1)c1cccc([N+](=O)[O-])c1
AC50: 30.5 µM

O=C(NC1=C(Nc2ccc(Cl)cc2)C(=O)c2ccccc2C1=O)c1ccccc1
AC50: 34.4 µM

O=C1C=C(NCCN2CCOCC2)C(=O)c2cnccc21
AC50: 1.54 µM

Cc1onc(-c2ccccc2)c1-c1nc2cc(Cl)ccc2c(=O)o1
AC50: > 38 µM (inactive)

CCOC(=O)c1nn(-c2ccc(OC)cc2)c(=O)c2c(N)scc12
AC50: > 38 µM (inactive)

CCOC(=O)C1CCN(c2nc(N)c3c(N)nc(SCC(=O)O)cc3c2C#N)CC1
AC50: > 12 µM (inactive)

CC1=NN(c2ccc(N)cc2)C(=O)C1
AC50: 3.44 µM

COC(=O)c1ccccc1OC(=O)c1ccc(Br)o1
AC50: > 38 µM (inactive)

Cn1c(SCC(=O)NCC2CCCO2)ncc(C(=O)Nc2ccc(Cl)cc2)c1=O (centres undefined)
AC50: > 38 µM (inactive)

COc1cccc(NC(=O)c2nc(S(C)(=O)=O)ncc2Cl)c1
AC50: > 38 µM (inactive)

CC(=O)Nc1ccc(S(=O)(=O)/N=C2\C(=O)c3ccccc3C([O-])=C2n2cc[n+](-c3ccccn3)c2)cc1
AC50: 5.71 µM

C(=N\Nc1nncc2ccccc12)/c1ccccn1
AC50: 19.8 µM

Cc1cc(C(=O)c2ccc(C(C)(C)C)cc2)c(NC(=O)CCl)s1
AC50: 9.8 µM

Clc1ccc2nnnc(-c3ccccc3)c2c1
AC50: 9.57 µM

CCn1c(O)c(N=Nc2cccc(S(=O)(=O)N3CCOCC3)c2)c(=O)n(CC)c1=S
AC50: > 38 µM (inactive)

O=[N+]([O-])c1ccc2nc(Cl)nc(-c3ccccc3)c2c1
AC50: > 38 µM (inactive)

CC(C)(C)c1cc[n+](C2=C([O-])c3ccccc3C(=O)/C2=N\S(=O)(=O)c2cccs2)cc1
AC50: 8.96 µM

CCN(CC)c1ccc2c(c1)CCCN2
AC50: > 12 µM (inactive)

CCNC1=C(Cl)C(=O)c2ccccc2C1=O
AC50: 22.3 µM

Cn1c(SCC(=O)NCc2ccc(F)cc2)nc2ccccc21
AC50: > 38 µM (inactive)

CCOC(=O)C1=C(c2ccccc2)NC(N)=NC1c1ccc(OCc2ccc(C(=O)OC)cc2)cc1 (centres undefined)
AC50: 9.55 µM
